According to patent US5672715A, “Herbicidal substituted 3-aryl-pyrazoles” (Monsanto Company, priority 1995, dated 1997):

Assays:
Assay type in all cases: in vivo
Downy Brome [1] = test: post-emergence herbicide test; details: Bromus tectorum, post-emergence, 0.25 lb/A; read-out: % plant inhibition
Outline: (§1)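 Two- to three-week-old plants, greenhouse-grown in compacted topsoil, received candidate chemical by atomizer spray at 1870 L/Ha. Scored as percent inhibition.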

Wheat [2] = test: post-emergence herbicide test; details: Triticum aestivum, post-emergence, 0.25 lb/A; read-out: % plant inhibition
Outline: as §1

Morning Glory [3] = test: post-emergence herbicide test; details: Ipomoea, post-emergence, 0.25 lb/A; read-out: % plant inhibition
Outline: as §1

Soybean [4] = test: post-emergence herbicide test; details: Glycine max, post-emergence, 0.25 lb/A; read-out: % plant inhibition
Outline: as §1

Bedstraw Catchweed [5] = test: post-emergence herbicide test; details: Galium aparine, post-emergence, 0.25 lb/A; read-out: % plant inhibition
Outline: as §1

Giant Foxtail [6] = test: post-emergence herbicide test; details: Setaria faberi, post-emergence, 0.25 lb/A; read-out: % plant inhibition
Outline: as §1

Green Foxtail [7] = test: post-emergence herbicide test; details: Setaria viridis, post-emergence, 0.25 lb/A; read-out: % plant inhibition
Outline: as §1

Birdseye Speedwell [8] = test: post-emergence herbicide test; details: post-emergence, 0.25 lb/A; read-out: % plant inhibition
Outline: as §1

Velvetleaf [9] = test: post-emergence herbicide test; details: Abutilon theophrasti, post-emergence, 0.25 lb/A; read-out: % plant inhibition
Outline: as §1

Seedling Johnsongrass [10] = test: post-emergence herbicide test; details: Sorghum halepense, post-emergence, 0.25 lb/A; read-out: % plant inhibition
Outline: as §1

Wild Oats [11] = test: post-emergence herbicide test; details: Avena fatua, post-emergence, 0.25 lb/A; read-out: % plant inhibition
Outline: as §1

Barnyardgrass [12] = test: post-emergence herbicide test; details: Echinochloa crus-galli, post-emergence, 0.25 lb/A; read-out: % plant inhibition
Outline: as §1

Common Chickweed [13] = test: post-emergence herbicide test; details: post-emergence, 0.25 lb/A; read-out: % plant inhibition
Outline: as §1

Blackgrass [14] = test: post-emergence herbicide test; details: Alopecurus myosuroides, post-emergence, 0.25 lb/A; read-out: % plant inhibition
Outline: as §1

Rape [15] = test: post-emergence herbicide test; details: post-emergence, 0.25 lb/A; read-out: % plant inhibition
Outline: as §1

Cocklebur [16] = test: post-emergence herbicide test; details: Xanthium strumarium, post-emergence, 0.25 lb/A; read-out: % plant inhibition
Outline: as §1

Corn [17] = test: post-emergence herbicide test; details: Zea mays, post-emergence, 0.25 lb/A; read-out: % plant inhibition
Outline: as §1

Downy Brome [18] = test: pre-emergence herbicide test; details: Bromus tectorum, pre-emergence, 0.25 lb/A; read-out: % plant inhibition
Outline: (§2)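 Steps: compact topsoil in pan; place seeds; level-fill with cover soil; add a known amount of compound before or after covering; keep pans in greenhouse, bottom-watering as needed; rate % inhibition at about 14 days.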

Wheat [19] = test: pre-emergence herbicide test; details: Triticum aestivum, pre-emergence, 0.25 lb/A; read-out: % plant inhibition
Outline: as §2

Morning Glory [20] = test: pre-emergence herbicide test; details: Ipomoea, pre-emergence, 0.25 lb/A; read-out: % plant inhibition
Outline: as §2

Soybean [21] = test: pre-emergence herbicide test; details: Glycine max, pre-emergence, 0.25 lb/A; read-out: % plant inhibition
Outline: as §2

Bedstraw Catchweed [22] = test: pre-emergence herbicide test; details: Galium aparine, pre-emergence, 0.25 lb/A; read-out: % plant inhibition
Outline: as §2

Giant Foxtail [23] = test: pre-emergence herbicide test; details: Setaria faberi, pre-emergence, 0.25 lb/A; read-out: % plant inhibition
Outline: as §2

Green Foxtail [24] = test: pre-emergence herbicide test; details: Setaria viridis, pre-emergence; 0.25 lb/A; read-out: % plant inhibition
Outline: as §2

Birdseye Speedwell [25] = test: pre-emergence herbicide test; details: pre-emergence, 0.25 lb/A; read-out: % plant inhibition
Outline: as §2

Velvetleaf [26] = test: pre-emergence herbicide test; details: Abutilon theophrasti, pre-emergence, 0.25 lb/A; read-out: % plant inhibition
Outline: as §2

Seedling Johnsongrass [27] = test: pre-emergence herbicide test; details: Sorghum halepense, pre-emergence, 0.25 lb/A; read-out: % plant inhibition
Outline: as §2

Wild Oats [28] = test: pre-emergence herbicide test; details: Avena fatua, pre-emergence, 0.25 lb/A; read-out: % plant inhibition
Outline: as §2

Barnyardgrass [29] = test: pre-emergence herbicide test; details: Echinochloa crus-galli, pre-emergence, 0.25 lb/A; read-out: % plant inhibition
Outline: as §2

Common Chickweed [30] = test: pre-emergence herbicide test; details: pre-emergence, 0.25 lb/A; read-out: % plant inhibition
Outline: as §2

Blackgrass [31] = test: pre-emergence herbicide test; details: Alopecurus myosuroides, pre-emergence, 0.25 lb/A; read-out: % plant inhibition
Outline: as §2

Rape [32] = test: pre-emergence herbicide test; details: pre-emergence, 0.25 lb/A; read-out: % plant inhibition
Outline: as §2

Cocklebur [33] = test: pre-emergence herbicide test; details: Xanthium strumarium, pre-emergence, 0.25 lb/A; read-out: % plant inhibition
Outline: as §2

Corn [34] = test: pre-emergence herbicide test; details: Zea mays, pre-emergence, 0.25 lb/A; read-out: % plant inhibition
Outline: as §2

| SMILES | inhibition at 280.212 g/ha (Downy Brome [1]) [%] | inhibition at 280.212 g/ha (Wheat [2]) [%] | inhibition at 280.212 g/ha (Morning Glory [3]) [%] | inhibition at 280.212 g/ha (Soybean [4]) [%] | inhibition at 280.212 g/ha (Bedstraw Catchweed [5]) [%] | inhibition at 280.212 g/ha (Giant Foxtail [6]) [%] | inhibition at 280.212 g/ha (Green Foxtail [7]) [%] | inhibition at 280.212 g/ha (Birdseye Speedwell [8]) [%] | inhibition at 280.212 g/ha (Velvetleaf [9]) [%] | inhibition at 280.212 g/ha (Seedling Johnsongrass [10]) [%] | inhibition at 280.212 g/ha (Wild Oats [11]) [%] | inhibition at 280.212 g/ha (Barnyardgrass [12]) [%] | inhibition at 280.212 g/ha (Common Chickweed [13]) [%] | inhibition at 280.212 g/ha (Blackgrass [14]) [%] | inhibition at 280.212 g/ha (Rape [15]) [%] | inhibition at 280.212 g/ha (Cocklebur [16]) [%] | inhibition at 280.212 g/ha (Corn [17]) [%] | inhibition at 280.212 g/ha (Downy Brome [18]) [%] | inhibition at 280.212 g/ha (Wheat [19]) [%] | inhibition at 280.212 g/ha (Morning Glory [20]) [%] | further results |
| --- | --- | --- | --- | --- | --- | --- | --- | --- | --- | --- | --- | --- | --- | --- | --- | --- | --- | --- | --- | --- | --- |
| CC(C)OC(=O)c1cc(-c2nn(C)c(C(F)(F)F)c2CF)c(F)cc1Cl [Compound 15, 2-Chloro-4-fluoro-5-[4-(fluoromethyl)-1-methyl-5-(trifluoromethyl)-1H-pyrazol-3-yl]benzoic acid, 1-methylethyl ester] | 100 | 20 | 98 | 90 | 100 | 90 | 100 | 100 | 100 | 100 | 100 | 99 | 100 | 100 | 100 | 99 | 65 | 100 | 0 | 93 | inhibition at 280.212 g/ha (Soybean [21]): 20%; inhibition at 280.212 g/ha (Bedstraw Catchweed [22]): 98%; inhibition at 280.212 g/ha (Giant Foxtail [23]): 100%; inhibition at 280.212 g/ha (Green Foxtail [24]): 100%; inhibition at 280.212 g/ha (Birdseye Speedwell [25]): 100%; inhibition at 280.212 g/ha (Velvetleaf [26]): 97%; inhibition at 280.212 g/ha (Seedling Johnsongrass [27]): 100%; inhibition at 280.212 g/ha (Wild Oats [28]): 90%; inhibition at 280.212 g/ha (Barnyardgrass [29]): 100%; inhibition at 280.212 g/ha (Common Chickweed [30]): 100%; inhibition at 280.212 g/ha (Blackgrass [31]): 100%; inhibition at 280.212 g/ha (Rape [32]): 60%; inhibition at 280.212 g/ha (Cocklebur [33]): 90%; inhibition at 280.212 g/ha (Corn [34]): 93% |
| CC(C)OC(=O)c1cc(-c2nn(C)c(C(F)(F)F)c2CO)c(F)cc1Cl [Compound 14, 2-Chloro-4-fluoro-5-[4-(hydroxymethyl)-1-methyl-5-(trifluoromethyl)-1H-pyrazol-3-yl]benzoic acid, 1-methylethyl ester] | 60 | 13 | 85 | 25 | 40 | 25 | 65 | 90 | 99 | 80 | 50 | 65 | 45 | 60 | 75 | 95 | 10 | 30 | 2 | 40 | inhibition at 280.212 g/ha (Soybean [21]): 8%; inhibition at 280.212 g/ha (Bedstraw Catchweed [22]): 20%; inhibition at 280.212 g/ha (Giant Foxtail [23]): 98%; inhibition at 280.212 g/ha (Green Foxtail [24]): 100%; inhibition at 280.212 g/ha (Birdseye Speedwell [25]): 98%; inhibition at 280.212 g/ha (Velvetleaf [26]): 60%; inhibition at 280.212 g/ha (Seedling Johnsongrass [27]): 97%; inhibition at 280.212 g/ha (Wild Oats [28]): 50%; inhibition at 280.212 g/ha (Barnyardgrass [29]): 90%; inhibition at 280.212 g/ha (Common Chickweed [30]): 98%; inhibition at 280.212 g/ha (Blackgrass [31]): 65%; inhibition at 280.212 g/ha (Rape [32]): 5%; inhibition at 280.212 g/ha (Cocklebur [33]): 15%; inhibition at 280.212 g/ha (Corn [34]): 15% |
| CCC(CC)COC(=O)c1cc(-c2nn(C)c(C(F)(F)F)c2C)c(F)cc1Cl [Compound 46] | 15 | 15 | 70 | 15 | 100 | 0 | 70 | 100 | 98 | 25 | 20 | 50 | 95 | 20 | 45 | 85 | 15 | 15 | 0 | 20 | inhibition at 280.212 g/ha (Soybean [21]): 0%; inhibition at 280.212 g/ha (Bedstraw Catchweed [22]): 75%; inhibition at 280.212 g/ha (Giant Foxtail [23]): 40%; inhibition at 280.212 g/ha (Green Foxtail [24]): 80%; inhibition at 280.212 g/ha (Birdseye Speedwell [25]): 80%; inhibition at 280.212 g/ha (Velvetleaf [26]): 80%; inhibition at 280.212 g/ha (Seedling Johnsongrass [27]): 75%; inhibition at 280.212 g/ha (Wild Oats [28]): 5%; inhibition at 280.212 g/ha (Barnyardgrass [29]): 0%; inhibition at 280.212 g/ha (Common Chickweed [30]): 90%; inhibition at 280.212 g/ha (Blackgrass [31]): 10%; inhibition at 280.212 g/ha (Rape [32]): 5%; inhibition at 280.212 g/ha (Cocklebur [33]): 10%; inhibition at 280.212 g/ha (Corn [34]): 0% |
| COCC(C)OC(=O)c1cc(-c2nn(C)c(C(F)(F)F)c2C)c(F)cc1Cl (centres unmarked) [Compound 52] | 100 | 25 | 99 | 95 | 100 | 100 | 98 | 100 | 100 | 99 | 95 | 99 | 100 | 95 | 100 | 100 | 15 | 100 | 0 | 70 | inhibition at 280.212 g/ha (Soybean [21]): 5%; inhibition at 280.212 g/ha (Bedstraw Catchweed [22]): 90%; inhibition at 280.212 g/ha (Giant Foxtail [23]): 100%; inhibition at 280.212 g/ha (Green Foxtail [24]): 100%; inhibition at 280.212 g/ha (Birdseye Speedwell [25]): 95%; inhibition at 280.212 g/ha (Velvetleaf [26]): 100%; inhibition at 280.212 g/ha (Seedling Johnsongrass [27]): 100%; inhibition at 280.212 g/ha (Wild Oats [28]): 85%; inhibition at 280.212 g/ha (Barnyardgrass [29]): 100%; inhibition at 280.212 g/ha (Common Chickweed [30]): 95%; inhibition at 280.212 g/ha (Blackgrass [31]): 100%; inhibition at 280.212 g/ha (Rape [32]): 60%; inhibition at 280.212 g/ha (Cocklebur [33]): 65%; inhibition at 280.212 g/ha (Corn [34]): 75% |
| CCCCCOC(=O)c1cc(-c2nn(C)c(C(F)(F)F)c2C)c(F)cc1Cl [Compound 48] | 65 | 16 | 75 | 70 | 80 | 99 | 98 | 100 | 100 | 85 | 75 | 60 | 65 | 70 | 60 | 90 | 7 | 90 | 0 | 99 | inhibition at 280.212 g/ha (Soybean [21]): 0%; inhibition at 280.212 g/ha (Bedstraw Catchweed [22]): 45%; inhibition at 280.212 g/ha (Giant Foxtail [23]): 99%; inhibition at 280.212 g/ha (Green Foxtail [24]): 100%; inhibition at 280.212 g/ha (Birdseye Speedwell [25]): 100%; inhibition at 280.212 g/ha (Velvetleaf [26]): 95%; inhibition at 280.212 g/ha (Seedling Johnsongrass [27]): 98%; inhibition at 280.212 g/ha (Wild Oats [28]): 45%; inhibition at 280.212 g/ha (Barnyardgrass [29]): 100%; inhibition at 280.212 g/ha (Common Chickweed [30]): 95%; inhibition at 280.212 g/ha (Blackgrass [31]): 60%; inhibition at 280.212 g/ha (Rape [32]): 5%; inhibition at 280.212 g/ha (Cocklebur [33]): 45%; inhibition at 280.212 g/ha (Corn [34]): 35% |
